Data from patent US20230099293A1, “OGA INHIBITOR COMPOUNDS” (priority 2019, published 2023).

Assays:
[1] = target: T1, recombinant human Meningioma Expressed Antigen 5 (MGEA5), also referred to as O-GlcNAcase (OGA) (Homo sapiens, UniProt O60502); test: OGA biochemical assay (inhibition of FM-GlcNAc hydrolysis, fluorescence); settings: for IC50: Enzymatic hOGA, pIC50, Table 5, full length OGA 2 nM, FM-GlcNAc 100 uM, 6 h at room temperature; for Emax: read-out: Enzymatic Emax (%)
T1 construct: Full length OGA enzyme was purchased at OriGene (cat #TP322411); purchased OriGene TP322411
T1 sequence (O60502 1-916): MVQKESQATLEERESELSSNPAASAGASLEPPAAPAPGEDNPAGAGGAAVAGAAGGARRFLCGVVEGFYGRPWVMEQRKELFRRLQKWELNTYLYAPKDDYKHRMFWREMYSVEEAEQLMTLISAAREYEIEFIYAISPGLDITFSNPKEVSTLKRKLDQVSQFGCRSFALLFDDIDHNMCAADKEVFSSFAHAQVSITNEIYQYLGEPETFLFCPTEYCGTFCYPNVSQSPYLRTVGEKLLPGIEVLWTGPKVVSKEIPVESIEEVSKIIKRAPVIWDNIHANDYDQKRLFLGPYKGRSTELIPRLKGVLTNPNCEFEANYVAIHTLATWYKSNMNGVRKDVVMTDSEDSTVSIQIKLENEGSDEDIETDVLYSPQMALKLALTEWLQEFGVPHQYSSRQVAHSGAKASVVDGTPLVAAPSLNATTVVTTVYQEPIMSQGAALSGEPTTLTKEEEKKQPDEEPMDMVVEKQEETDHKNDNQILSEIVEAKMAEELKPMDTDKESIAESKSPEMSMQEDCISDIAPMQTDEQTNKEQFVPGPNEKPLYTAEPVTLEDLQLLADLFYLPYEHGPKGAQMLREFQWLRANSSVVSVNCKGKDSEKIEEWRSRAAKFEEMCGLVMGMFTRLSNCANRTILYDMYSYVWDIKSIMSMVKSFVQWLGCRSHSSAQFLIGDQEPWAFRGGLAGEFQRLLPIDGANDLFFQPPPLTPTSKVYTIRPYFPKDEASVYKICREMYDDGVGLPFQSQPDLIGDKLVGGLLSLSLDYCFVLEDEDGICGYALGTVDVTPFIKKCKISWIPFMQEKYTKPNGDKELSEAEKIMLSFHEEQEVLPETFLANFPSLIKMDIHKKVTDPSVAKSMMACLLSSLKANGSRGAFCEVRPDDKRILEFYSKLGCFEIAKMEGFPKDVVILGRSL
Method: The hydrolysis FM-GlcNAc (Marker Gene technologies, cat #M1485) results in the formation of β-D-N-glucosamineacetate and fluorescein. The fluorescence of the latter can be measured at excitation wavelength 485 nm and emission wavelength 538 nm. An increase in enzyme activity results in an increase in fluorescence signal. Full length OGA enzyme was purchased at OriGene (cat #TP322411). The enzyme was stored in 25 mM Tris.HCl, pH 7.3, 100 mM glycine, 10% glycerol at −20° C. […] The assay was performed in 200 mM Citrate/phosphate buffer supplemented with 0.005% Tween-20. 35.6 g Na2HIPO42H2O (Sigma, #C0759) were dissolved in 1 L water to obtain a 200 mM solution. […] The buffer to stop the reaction consists of a 500 mM Carbonate buffer, pH 11.0. […] OGA was used at a 2 nM concentration and FM-GlcNAc at a 100 uM final concentration. Dilutions were prepared in assay buffer.
Plates were pre-incubated for 60 min at room temperature and then 2 μl FM-GlcNAc substrate mix added. […] Plates were briefly centrifuged for 1 min at 1000 rpm and incubate at room temperature for 6 h. To stop the reaction 5 μl STOP buffer were added and plates centrifuge again 1 min at 1000 rpm. Fluorescence was quantified in the Thermo Scientific Fluoroskan Ascent or the PerkinElmer EnVision with excitation wavelength 485 nm and emission wavelength 538 nm.
For analysis a best-fit curve is fitted by a minimum sum of squares method. From this an IC50 value and Hill coefficient was obtained. High control (no inhibitor) and low control (saturating concentrations of standard inhibitor) were used to define the minimum and maximum values.

hOGA = target: T2, hOGA (Homo sapiens, UniProt O60502); test: OGA cellular assay (ICC detection of O-GlcNAcylated proteins in HEK293 cells inducible for P301L mutant human Tau); format: cell-based; design: Emax: dose or concentration left out as unconfirmed; settings: for EC50: Cellular hOGA, pEC50, Table 5, HEK293 P301L Tau cells, 6 hours incubation, O-GlcNAcylation readout; for Emax: HEK293, read-out: Cellular Emax (%)
T2 construct: endogenous in cells; host or cells: HEK293 cells inducible for P301L mutant human Tau (isoform 2N4R)
T2 sequence (O60502 1-916): T1 sequence (O60502 1-916)
Method: HEK293 cells inducible for P301L mutant human Tau (isoform 2N4R) were established at Janssen. Thiamet-G was used for both plate validation (high control) and as reference compound (reference EC50 assay validation). OGA inhibition is evaluated through the immunocytochemical (ICC) detection of O-GlcNAcylated proteins by the use of a monoclonal antibody (CTD110.6; Cell Signaling, #9875) detecting O-GlcNAcylated residues as previously described (Dorfmueller et al. 2010 Chemistry & biology, 17:1250). Inhibition of OGA will result in an increase of O-GlcNAcylated protein levels resulting in an increased signal in the experiment. Cell nuclei are stained with Hoechst to give a cell culture quality control and a rough estimate of immediate compounds toxicity, if any. ICC pictures are imaged with a Perkin Elmer Opera Phenix plate microscope and quantified with the provided software Perkin Elmer Harmony 4.1.
Cells were propagated in DMEM high Glucose (Sigma, #D5796) following standard procedures. 2 days before the cell assay cells are split, counted and seeded in Poly-D-Lysine (PDL) coated 96-wells (Greiner, #655946) plate at a cell density of 12,000 cells per cm^2 (4,000 cells per well) in 100 μl of Assay Medium (Low Glucose medium is used to reduce basal levels of GlcNAcylation) (Park et al. 2014 The Journal of biological chemistry 289:13519). At the day of compound test medium from assay plates was removed and replenished with 90 μl of fresh Assay Medium. 10 μl of compounds at a 10 fold final concentration were added to the wells. Plates were centrifuged shortly before incubation in the cell incubator for 6 hours. DMSO concentration was set to 0.2%. Medium is discarded by applying vacuum. For staining of cells medium was removed and cells washed once with 100 μl D-PBS (Sigma, #D8537). From next step onwards unless other stated assay volume was always 50 μl and incubation was performed without agitation and at room temperature. Cells were fixed in 50 μl of a 4% paraformaldehyde (PFA, Alpha aesar, #043368) PBS solution for 15 minutes at room temperature. […] Before analysis samples were washed 2 times manually for 5 minutes in ICC base buffer.
Imaging is performed using Perkin Elmer Phenix Opera using a water 20× objective and recording 9 fields per well. Intensity readout at 488 nm is used as a measure of O-GlcNAcylation level of total proteins in wells. To assess potential toxicity of compounds nuclei were counted using the Hoechst staining. IC50-values are calculated using parametric non-linear regression model fitting. As a maximum inhibition Thiamet Gat a 200 uM concentration is present on each plate. In addition, a concentration response of Thiamet G is calculated on each plate.

With `Cc1ccc(-n2nc(C)c(Nc3nccc4c3ncn4CC(=O)N(C)C)c2C)cc1C` [Compound 42] the IC50 [1] was 21.9 nM, the Emax [1] was 93% and the EC50 (hOGA) was 295 nM. It also gave an Emax (hOGA) of 70% and a melting point of 144.7 °C.
`Cc1cc(C)cc(-n2nc(C)c(Nc3nccc4c3ncn4CC(=O)N(C)C)c2C)c1` [Compound 43] gave an IC50 [1] of 14.8 nM, an Emax [1] of 99% and an EC50 (hOGA) of 437 nM. It also gave an Emax (hOGA) of 65% and a melting point of 154.7 °C.
Work on `COc1ccc(-n2nc(C)c(Nc3nccc4c3ncn4CC(=O)N(C)C)c2C)cc1` [Compound 44] yielded an IC50 [1] of 27.5 nM, an Emax [1] of 99% and an EC50 (hOGA) of 457 nM. For the same compound, the Emax (hOGA) was 64% and the melting point was 199.9 °C.
Work on `Cc1ccc(-n2nc(C)c(Nc3nccc4c3ncn4CC(=O)N(C)C)c2C)cc1` [Compound 45] yielded an IC50 [1] of 23.4 nM, an Emax [1] of 94% and an EC50 (hOGA) of 550 nM. It also gave an Emax (hOGA) of 94% and a melting point of 214.9 °C.
Compound `Cc1cc(C#N)cc(C)c1Nc1nccc2c1ncn2CC(=O)N(C)C` [Compound 46] has an IC50 [1] of 13.5 nM, an Emax [1] of 92% and an EC50 (hOGA) of 468 nM. It also gave an Emax (hOGA) of 69% and a melting point of 263.4 °C.
With `CC(C)c1cc(F)cc(Cl)c1Nc1nccc2c1ncn2CC(=O)N(C)C` [Compound 47] the IC50 [1] was 13.5 nM, the Emax [1] was 97% and the EC50 (hOGA) was 67.6 nM. For the same compound, the Emax (hOGA) was 110% and the melting point was 251.8 °C.
Work on `Cc1cc(C(F)(F)F)cc(C)c1Nc1nccc2c1ncn2CC(=O)N1CCCC1` [Compound 49] yielded an IC50 [1] of 93.3 nM, an Emax [1] of 95% and an EC50 (hOGA) of 646 nM. The Emax (hOGA) was 57% and the melting point was 196.6 °C.
For `Cc1cc(C(F)(F)F)cc(C)c1Nc1nccc2c1ncn2CC(=O)N1CCC1` [Compound 50], the IC50 [1] was 126 nM, the Emax [1] was 94% and the EC50 (hOGA) was 933 nM. It also gave an Emax (hOGA) of 48% and a melting point of 176.4 °C.
In the case of `Cc1cc(C(F)(F)F)cc(C)c1Nc1nccc2c1ncn2CC(=O)N(C)C1CC1` [Compound 52], the IC50 [1] is reported as 8.13 nM, the Emax [1] is reported as 102% and the EC50 (hOGA) is reported as 138 nM. For the same compound, the Emax (hOGA) was 73% and the melting point was 199.8 °C.
`[2H]C([2H])([2H])N(C(=O)Cn1cnc2c(Nc3c(C)cc(C(F)(F)F)cc3C)nccc21)C([2H])([2H])[2H]` [Compound 53] showed an IC50 [1] of 7.24 nM, an Emax [1] of 103% and an EC50 (hOGA) of 135 nM. The Emax (hOGA) was 87% and the melting point was 208.2 °C.
Work on `CCCCn1cnc2c(Nc3c(C)cc(F)cc3C)nccc21` [Compound 57] yielded an IC50 [1] of 53.7 nM, an Emax [1] of 99% and an EC50 (hOGA) of 513 nM. It also gave an Emax (hOGA) of 62% and a melting point of 184.45 °C.
Compound `Cc1cc(C(F)(F)F)cc(C)c1Nc1nccc2c1ncn2Cc1ccon1` [Compound 59, N-(2,6-dimethyl-4-(trifluoromethyl)phenyl)-1-(isoxazole-3-ylmethyl)-1H-imidazo[4,5-c]pyridine-4-amine] has an IC50 [1] of 9.12 nM, an Emax [1] of 101% and an Emax (hOGA) of 72%. The melting point was 154.7 °C.
Compound `Cc1cc(C(F)(F)F)cc(C)c1Nc1nccc2c1ncn2-c1ccc(F)cn1` [Compound 60, N-(2,6-Dimethyl-4-(trifluoromethyl)phenyl)-1-(5-fluoropyridin-2-yl)-1H-imidazo[4,5-c]pyridin-4-amine] has an IC50 [1] of 117 nM, an Emax [1] of 100% and an EC50 (hOGA) of 933 nM. The Emax (hOGA) was 44% and the melting point was 186.5 °C.
In the case of `Cc1cc(C(F)(F)F)cc(C)c1Nc1nccc2c1ncn2CC(=O)N(C)C` [Compound 61, 2-(4-((2,6-Dimethyl-4-(trifluoromethyl)phenyl)amino)-1H-imidazo[4,5-c]pyridin-1-yl)-N,N-dimethylacetamide], the IC50 [1] is reported as 9.33 nM, the Emax [1] is reported as 98% and the EC50 (hOGA) is reported as 107 nM. It also gave an Emax (hOGA) of 87% and a melting point of 207.65 °C.
With `Cc1cc(C(F)(F)F)cc(C)c1Nc1ncc(Cl)c2c1ncn2CC(=O)N(C)C` [Compound 62, 2-[7-Chloro-4-[2,6-dimethyl-4-(trifluoromethyl)anilino]imidazo[4,5-c]pyridin-1-yl]-N,N-dimethyl-acetamide] the IC50 [1] was 692 nM, the Emax [1] was 91% and the EC50 (hOGA) was > 1000 nM. It also gave an Emax (hOGA) of 13% and a melting point of 239.9 °C.
